In patent US20260206755A1, “COMPOUNDS AND COMPOSITIONS HAVING KNOCK-DOWN OR BLOOD FEED INHIBITION ACTIVITY AGAINST INSECT PESTS” (priority 2017, published 2026):
Where two headings read alike, the source gives them in different places.

Tested on: Anopheles stephensi
Assay: Anopheles stephensi treated well plate contact test: knockdown and mortality
Format: in vivo
Conditions: for mortality at 0.2 ppm / pest or weed control at 0.2 ppm / mortality at 2 ppm / pest or weed control at 2 ppm / mortality at 20 ppm / pest or weed control at 20 ppm / mortality at 200 ppm / pest or weed control at 200 ppm / mortality at 0.02 ppm / pest or weed control at 0.02 ppm: Anopheles stephensi; for pest or weed control at 0.2 ppm / pest or weed control at 2 ppm / pest or weed control at 20 ppm / pest or weed control at 200 ppm / Knock Down, with TFNA-AM / pest or weed control at 0.02 ppm: knockdown after 1 hour; for pest or weed control at 0.2 ppm / pest or weed control at 2 ppm / pest or weed control at 20 ppm / pest or weed control at 200 ppm / pest or weed control at 0.02 ppm: read-out: Knock Down, without TFNA-AM; for mortality at 200 ppm / pest or weed control at 200 ppm: test compound 200 ppm; for pest or weed control at 200 ppm: adult females
Procedure: Examples Anopheles stephensi (Indian Malaria Mosquito)
The individual wells of twelve (12) well tissue culture plates were treated with 200 μl of an ethanol solution containing a test compound of Table 1 or Table 2 at a defined concentration and repeated with also 200 μl of an ethanol solution containing in addition 2 ppm TFNA-AM. Once the deposits were dry, five non-blood fed adult female Anopheles stephensi (between two to five day old) were added to each well, and sustained with a 10% sucrose solution in a cotton wool plug. Assessment of the knockdown after 1 hour, and mortality after 24 and 48 hours was carried out.
In case of multiple tests, the mean value is reported.

[1] = test compound 0.2 ppm, without TFNA-AM, after 24 hours, read-out: mortality % 24, without TFNA-AM
[2] = test compound 0.2 ppm, without TFNA-AM, after 48 hours, read-out: mortality % 48, without TFNA-AM
[3] = test compound 0.2 ppm, without TFNA-AM
[4] = test compound 2 ppm, without TFNA-AM, after 24 hours, read-out: mortality % 24, without TFNA-AM
[5] = test compound 2 ppm, without TFNA-AM, after 48 hours, read-out: mortality % 48, without TFNA-AM
[6] = test compound 2 ppm, without TFNA-AM
[7] = test compound 20 ppm, without TFNA-AM, after 24 hours, read-out: mortality % 24, without TFNA-AM
[8] = test compound 20 ppm, without TFNA-AM, after 48 hours, read-out: mortality % 48, without TFNA-AM
[9] = test compound 20 ppm, without TFNA-AM
[10] = without TFNA-AM, after 24 hours, read-out: mortality % 24, without TFNA-AM
[11] = without TFNA-AM, after 48 hours, read-out: mortality % 48, without TFNA-AM
[12] = test compound 0.2 ppm plus 2 ppm TFNA-AM, after 24 hours
[13] = test compound 0.2 ppm plus 2 ppm TFNA-AM, after 48 hours
[14] = test compound 0.2 ppm plus 2 ppm TFNA-AM
[15] = test compound 2 ppm plus 2 ppm TFNA-AM, after 24 hours
[16] = test compound 2 ppm plus 2 ppm TFNA-AM, after 48 hours
[17] = test compound 2 ppm plus 2 ppm TFNA-AM
[18] = test compound 20 ppm plus 2 ppm TFNA-AM, after 24 hours
[19] = test compound 20 ppm plus 2 ppm TFNA-AM, after 48 hours
[20] = test compound 20 ppm plus 2 ppm TFNA-AM
[21] = test compound 200 ppm plus 2 ppm TFNA-AM, after 24 hours
[22] = test compound 200 ppm plus 2 ppm TFNA-AM, after 48 hours
[23] = test compound 200 ppm plus 2 ppm TFNA-AM
[24] = test compound 0.02 ppm, without TFNA-AM, after 24 hours, read-out: mortality % 24, without TFNA-AM
[25] = test compound 0.02 ppm, without TFNA-AM, after 48 hours, read-out: mortality % 48, without TFNA-AM
[26] = test compound 0.02 ppm, without TFNA-AM
[27] = test compound 0.02 ppm plus 2 ppm TFNA-AM, after 24 hours
[28] = test compound 0.02 ppm plus 2 ppm TFNA-AM, after 48 hours
[29] = test compound 0.02 ppm plus 2 ppm TFNA-AM
[30] = 24 h, read-out: mortality % 24, without TFNA-AM
[31] = 48 h, read-out: mortality % 48, without TFNA-AM

SMILES | mortality at 0.2 ppm [1] | mortality at 0.2 ppm [2] | pest or weed control at 0.2 ppm [3] | mortality at 2 ppm [4] | mortality at 2 ppm [5] | pest or weed control at 2 ppm [6] | mortality at 20 ppm [7] | mortality at 20 ppm [8] | pest or weed control at 20 ppm [9] | mortality at 200 ppm [10] | mortality at 200 ppm [11] | mortality % 24, with TFNA-AM [12] | mortality % 48, with TFNA-AM [13] | Knock Down, with TFNA-AM [14] | mortality % 24, with TFNA-AM [15] | mortality % 48, with TFNA-AM [16] | Knock Down, with TFNA-AM [17] | mortality % 24, with TFNA-AM [18] | mortality % 48, with TFNA-AM [19] | Knock Down, with TFNA-AM [20] | other results
OC(c1ccc(Cl)cc1)(c1ccc(Cl)cc1)C(Cl)(Cl)Cl [Dicofol] | 0% | 0% | 0% | 0% | 0% | 0% | 0% | 0% | 0% | 0% | 0% | 20% | 0% | 100% | 60% | 20% | 100% | 80% | 100% | 100% | pest or weed control at 200 ppm (without TFNA-AM): 0%; mortality % 24, with TFNA-AM [21]: 100%; mortality % 48, with TFNA-AM [22]: 100%; Knock Down, with TFNA-AM [23]: 100%
CCC(Nc1ncnc(C)c1Cl)c1ccc(OC(F)F)cc1 (stereo not shown) [Diflumetorim] | 0% | 0% | 0% | 60% | 60% | 30% | 100% | 100% | 100% | 100% | 100% | 20% | 10% | 100% | 90% | 90% | 100% | 100% | 100% | 100% | pest or weed control at 200 ppm (without TFNA-AM): 100%; mortality % 24, with TFNA-AM [21]: 100%; mortality % 48, with TFNA-AM [22]: 100%; Knock Down, with TFNA-AM [23]: 100%
CN/C(=N/CC1CCOC1)N[N+](=O)[O-] (stereo not shown) [Dinotefuran] | 0% | 0% | 0% | 40% | 40% | 0% | 40% | 80% | 0% | 100% | 100% | – | 60% | 100% | – | 60% | 100% | 100% | 100% | 100% | pest or weed control at 200 ppm (without TFNA-AM): 40%; mortality % 24, with TFNA-AM [21]: 100%; mortality % 48, with TFNA-AM [22]: 100%; Knock Down, with TFNA-AM [23]: 100%
CCOc1ccc(C(C)(C)COCc2cccc(Oc3ccccc3)c2)cc1 [Etofenprox] | 20% | 20% | 0% | 80% | 80% | 0% | 100% | 100% | 60% | – | – | 100% | 100% | 100% | 100% | 100% | 100% | 100% | 100% | 100% | mortality at 0.02 ppm [24]: 0%; mortality at 0.02 ppm [25]: 0%; pest or weed control at 0.02 ppm [26]: 0%; mortality % 24, with TFNA-AM [27]: 60%; mortality % 48, with TFNA-AM [28]: 60%; Knock Down, with TFNA-AM [29]: 100%
CCOc1cc(C(C)(C)C)ccc1C1COC(c2c(F)cccc2F)=N1 (stereo not shown) [Etoxazole] | 0% | 0% | 0% | 0% | 0% | 0% | 0% | 0% | 0% | 0% | 0% | 40% | 40% | 100% | 60% | 40% | 100% | 60% | 60% | 100% | pest or weed control at 200 ppm (without TFNA-AM): 0%; mortality % 24, with TFNA-AM [21]: 80%; mortality % 48, with TFNA-AM [22]: 80%; Knock Down, with TFNA-AM [23]: 100%
COP(=S)(OC)Oc1ccc([N+](=O)[O-])c(C)c1 [Fenitrothion] | – | – | 0% | – | – | 0% | – | – | 0% | – | – | 80% | 100% | 100% | 100% | 100% | 100% | 100% | 100% | 100% | mortality at 0.02 ppm [30]: 0%; mortality at 0.2 ppm [30]: 20%; mortality at 2 ppm [30]: 100%; mortality at 20 ppm [30]: 100%; mortality at 0.02 ppm [31]: 0%; mortality at 0.2 ppm [31]: 100%; mortality at 2 ppm [31]: 100%; mortality at 20 ppm [31]: 100%; pest or weed control at 0.02 ppm [26]: 0%; mortality % 24, with TFNA-AM [27]: 40%; mortality % 48, with TFNA-AM [28]: 40%; Knock Down, with TFNA-AM [29]: 100%
CCOC(=O)NCCOc1ccc(Oc2ccccc2)cc1 [Fenoxycarb] | 0% | 0% | 0% | 0% | 0% | 0% | 0% | 0% | 20% | 0% | 0% | 40% | 40% | 100% | 80% | 80% | 100% | 80% | 80% | 100% | pest or weed control at 200 ppm (without TFNA-AM): 20%; mortality % 24, with TFNA-AM [21]: 80%; mortality % 48, with TFNA-AM [22]: 80%; Knock Down, with TFNA-AM [23]: 100%
N#Cc1nn(-c2c(Cl)cc(C(F)(F)F)cc2Cl)c(N)c1[S+]([O-])C(F)(F)F (stereo not shown) [Fipronil] | 20% | 40% | 0% | 40% | 100% | 0% | 100% | 100% | 0% | – | – | 60% | 100% | 100% | 80% | 100% | 100% | 100% | 100% | 100% | mortality at 0.02 ppm [24]: 0%; mortality at 0.02 ppm [25]: 20%; pest or weed control at 0.02 ppm [26]: 0%; mortality % 24, with TFNA-AM [27]: 0%; mortality % 48, with TFNA-AM [28]: 0%; Knock Down, with TFNA-AM [29]: 100%
